Among the data in patent publication US8088761B2, “Enzyme inhibitors” (Cancer Research Technology Limited, priority 2005, dated 2012) are IC50 values, retold here.

Molecules are shown by their SMILES. Read-outs that look alike come from different tables or passages of the source.

One test has as its system HCT116 cells. Briefly: Cell viability assay (MTT) in HCT116 cell line. Type of test: cell-based. Conditions: Homo sapiens, HCT-116, 72 hrs, IC50 range, read-out: HCT116 cell growth inhibition. In short, it runs like this:
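MTT read-out (4 hrs, 37 °C, DMSO extraction) following 72 hrs of treatment with 0-50 μM Aurora inhibitor. HCT116 cells were plated a day earlier and tested in triplicate; IC50 derived from the curve.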

In the next test the target is T1, Aurora-A (Homo sapiens, UniProt O14965).
T1 sequence (O14965 1-403): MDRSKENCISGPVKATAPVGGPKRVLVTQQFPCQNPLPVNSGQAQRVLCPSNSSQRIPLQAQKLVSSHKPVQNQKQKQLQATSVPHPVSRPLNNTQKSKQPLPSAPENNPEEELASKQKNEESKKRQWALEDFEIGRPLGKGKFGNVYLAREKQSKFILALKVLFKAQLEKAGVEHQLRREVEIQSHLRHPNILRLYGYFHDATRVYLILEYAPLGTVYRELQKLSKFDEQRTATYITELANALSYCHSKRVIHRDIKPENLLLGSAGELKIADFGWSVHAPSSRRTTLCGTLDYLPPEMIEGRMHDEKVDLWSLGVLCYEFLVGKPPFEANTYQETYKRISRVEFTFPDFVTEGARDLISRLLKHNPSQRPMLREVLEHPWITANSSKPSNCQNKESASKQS
The test is described as follows: Flashplate Aurora A enzyme inhibition assay. The format is biochemical. The gist of the method: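 This is a radiometric Flashplate format: plates were precoated with DTT, and compound (in 2% DMSO) was mixed with kinase buffer (pH 7.5 Tris, MgCl2, NaCl) containing 1 mM MBP, 20 μM ATP and ^33P-ATP. The reaction was started with 250 ng Aurora-A per well and incubated 2 h at RT. It was then stopped by 10 mM sodium pyrophosphate washing, and plates were scintillation-counted.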

[1] abbreviates: Flashplate assay, IC50 range, read-out: Aurora-A inhibition.

`Cn1cncc1CN1CCN(c2c(Br)cnc3[nH]c(-c4ccc(CN5CCNCC5)cc4)nc23)CC1` [Example 181, 6-bromo-7-(4-((1-methyl-1H-imidazol-5-yl)methyl)piperazin-1-yl)-2-(4-(piperazin-1-ylmethyl)phenyl)-3H-imidazo[4,5-b]pyridine]: the IC50 in the test on HCT116 cells was 2 to 50 µM; at Aurora-A (setting [1]), under 0.5 µM.
Taken in the same sequence, the figures for `CN(C)c1ccc(-c2nc3c(N4CCN(CC(=O)Nc5cccnc5)CC4)c(Br)cnc3[nH]2)cc1` [Example 21, 2-(4-(6-Bromo-2-(4-(dimethylamino)phenyl)-3H-imidazo[4,5-b]pyridin-7-yl)piperazin-1-yl)-N-(pyridin-3-yl)acetamide] were 0.5 to 2 µM and under 0.5 µM.
`Cn1ccnc1CN1CCN(c2c(Br)cnc3[nH]c(-c4ccc(CN5CCOCC5)cc4)nc23)CC1` [Example 166, 4-(4-(6-Bromo-7-(4-((1-methyl-1H-imidazol-2-yl)methyl)piperazin-1-yl)-3H-imidazo[4,5-b]pyridin-2-yl)benzyl)morpholine]: the results for the IC50 in the test with HCT116 cells and at Aurora-A (setting [1]) were 0.5 to 2 µM and under 0.5 µM, respectively.
On to `COc1ccc(-c2nc3c(N4CCN(Cc5cccc6c5OCO6)CC4)c(Br)cnc3[nH]2)cc1` [Example 119, 7-(4-(Benzo[d][1,3]dioxol-4-ylmethyl)piperazin-1-yl)-6-bromo-2-(4-methoxyphenyl)-3H-imidazo[4,5-b]pyridine], for which the IC50 with HCT116 cells and at Aurora-A (setting [1]) was under 0.5 µM in each case.
As to `Cc1csc(NC(=O)CN2CCN(c3c(Cl)cnc4[nH]c(-c5ccc(N(C)C)cc5)nc34)CC2)n1` [Example 23, 2-(4-(6-Chloro-2-(4-(dimethylamino)phenyl)-3H-imidazo[4,5-b]pyridin-7-yl)piperazin-1-yl)-N-(4-methylthiazol-2-yl)acetamide], the IC50 in the test on HCT116 cells is 0.5 to 2 µM; at Aurora-A (setting [1]), under 0.5 µM.
The corresponding values for `CN(C)c1ccc(-c2nc3c(N4CCN(Cc5ccncc5)CC4)c(Br)cnc3[nH]2)cc1` [Example 31, 4-(6-Bromo-7-(4-(pyridin-4-ylmethyl)piperazin-1-yl)-3H-imidazo[4,5-b]pyridin-2-yl)-N,N-dimethylaniline] are 0.5 to 2 µM and under 0.5 µM.
Taken in the same sequence, the figures for `Brc1cnc2[nH]c(-c3ccc(-n4cccn4)cc3)nc2c1N1CCN(Cc2cccnc2)CC1` [Example 108, 2-(4-(1H-pyrazol-1-yl)phenyl)-6-bromo-7-(4-(pyridin-3-ylmethyl)piperazin-1-yl)-3H-imidazo[4,5-b]pyridine] were 0.5 to 2 µM and under 0.5 µM.
Taken in the same sequence, the figures for `NCCc1nc2c(N3CCN(Cc4cccnc4)CC3)c(Br)cnc2[nH]1` [Example 98, 2-(6-Bromo-7-(4-(pyridin-3-ylmethyl)piperazin-1-yl)-3H-imidazo[4,5-b]pyridin-2-yl)ethanamine] were 2 to 50 µM and 2 to 10 µM.
In the case of `O=C(CN1CCN(c2c(Br)cnc3[nH]c(-c4ccccc4)nc23)CC1)Nc1nccs1` [Example 5, 2-[4-(6-Bromo-2-phenyl-3H-imidazo[4,5-b]pyridin-7-yl)-piperazin-1-yl]-N-thiazol-2-yl-acetamide], the results for the IC50 with HCT116 cells and at Aurora-A (setting [1]) were 2 to 50 µM and under 0.5 µM, respectively.
The corresponding values for `OC1CCN(c2ccc(-c3nc4c(N5CCN(Cc6cccnc6)CC5)c(Br)cnc4[nH]3)cc2)CC1` [Example 114, 1-(4-(6-Bromo-7-(4-(pyridin-3-ylmethyl)piperazin-1-yl)-3H-imidazo[4,5-b]pyridin-2-yl)phenyl)piperidin-4-ol] are under 0.5 µM and under 0.5 µM.
The corresponding values for `CN1CCN(c2ccc(-c3nc4c(N5CCN(Cc6ccc(Cl)cc6)CC5)c(Br)cnc4[nH]3)cc2)CC1` [Example 86, 6-Bromo-7-[4-(4-chloro-benzyl)-piperazin-1-yl]-2-[4-(4-methyl-piperazin-1-yl)-phenyl]-3H-imidazo[4,5-b]pyridine] are under 0.5 µM and under 0.5 µM.
On to `COc1ccc(CN2CCN(c3c(Br)cnc4[nH]c(-c5ccc(CN6CCOCC6)cc5)nc34)CC2)cn1` [Example 117, 4-(4-(6-Bromo-7-(4-((6-methoxypyridin-3-yl)methyl)piperazin-1-yl)-3H-imidazo[4,5-b]pyridin-2-yl)benzyl)morpholine], for which the IC50 in the test on HCT116 cells was 0.5 to 2 µM; at Aurora-A (setting [1]) it was under 0.5 µM.
Taken in the same sequence, the figures for `O=C(CN1CCN(c2c(Cl)cnc3[nH]c(-c4ccccc4)nc23)CC1)Nc1nccs1` [Example 4, 2-[4-(6-Chloro-2-phenyl-3H-imidazo[4,5-b]pyridin-7-yl)-piperazin-1-yl]-N-thiazol-2-yl-acetamide] were 0.5 to 2 µM and under 0.5 µM.
Taken in the same sequence, the figures for `COc1cccc(-c2nc3c(N4CCN(Cc5cc(C)on5)CC4)c(Br)cnc3[nH]2)c1` [Example 81, 6-Bromo-2-(3-methoxy-phenyl)-7-[4-(5-methyl-isoxazol-3-ylmethyl)-piperazin-1-yl]-3H-imidazo[4,5-b]pyridine] were 0.5 to 2 µM and under 0.5 µM.
The corresponding values for `Cn1cncc1CN1CCN(c2c(Br)cnc3[nH]c(-c4ccc(CN5CCOCC5)cc4)nc23)CC1` [Example 169, 4-(4-(6-Bromo-7-(4-((1-methyl-1H-imidazol-5-yl)methyl)piperazin-1-yl)-3H-imidazo[4,5-b]pyridin-2-yl)benzyl)morpholine] are 0.5 to 2 µM and under 0.5 µM.
As for `CN(C)c1ccc(-c2nc3c(N4CCCN(Cc5ccc(F)cc5)CC4)c(Br)cnc3[nH]2)cc1` [Example 34, 4-(6-Bromo-7-(4-(4-fluorobenzyl)-1,4-diazepan-1-yl)-3H-imidazo[4,5-b]pyridin-2-yl)-N,N-dimethylaniline], the IC50 was 2 to 50 µM in the test with HCT116 cells and under 0.5 µM on Aurora-A (setting [1]).
Taken in the same sequence, the figures for `CC(C)(C)OC(=O)NCc1nc2c(N3CCN(Cc4cccnc4)CC3)c(Br)cnc2[nH]1` [Example 99, tert-Butyl (6-bromo-7-(4-(pyridin-3-ylmethyl)piperazin-1-yl)-3H-imidazo[4,5-b]pyridin-2-yl)methylcarbamate] were 2 to 50 µM and 2 to 10 µM.
Taken in the same sequence, the figures for `COc1ccc(-c2nc3c(N4CCN(Cc5cncnc5)CC4)c(Cl)cnc3[nH]2)cc1` [Example 139, 6-Chloro-2-(4-methoxyphenyl)-7-(4-(pyrimidin-5-ylmethyl)piperazin-1-yl)-3H-imidazo[4,5-b]pyridine] were 0.5 to 2 µM and under 0.5 µM.
Consider `O=C(CN1CCN(c2c(Br)cnc3[nH]cnc23)CC1)Nc1nccs1` [Example 10, 2-[4-(6-Bromo-3H-imidazo[4,5-b]pyridin-7-yl)-piperazin-1-yl]-N-thiazol-2-yl-acetamide], for which the values for the IC50 in the test on HCT116 cells and at Aurora-A (setting [1]) were 2 to 50 µM and 0.5 to 2 µM, respectively.
Taken in the same sequence, the figures for `Cc1nc(CN2CCN(c3c(Br)cnc4[nH]c(-c5ccc(CN6CCNCC6)cc5)nc34)CC2)cs1` [Example 164, 4-((4-(6-Bromo-2-(4-(piperazin-1-ylmethyl)phenyl)-3H-imidazo[4,5-b]pyridin-7-yl)piperazin-1-yl)methyl)-2-methylthiazole] were under 0.5 µM and under 0.5 µM.
Taken in the same sequence, the figures for `CC(c1ccccc1)N1CCN(c2c(Br)cnc3[nH]c(-c4ccc(N5CCN(C)CC5)cc4)nc23)CC1` (stereo not shown) [Example 71, 6-Bromo-2-[4-(4-methyl-piperazin-1-yl)-phenyl]-7-[4-(1-phenyl-ethyl)-piperazin-1-yl]-3H-imidazo[4,5-b]pyridine] were under 0.5 µM and under 0.5 µM.
On to `Clc1cnc2[nH]c(-c3ccc(CN4CCOCC4)cc3)nc2c1N1CCN(Cc2cccnc2)CC1` [Example 79, 6-Chloro-2-(4-morpholin-4-ylmethyl-phenyl)-7-(4-pyridin-3-ylmethyl-piperazin-1-yl)-3H-imidazo[4,5-b]pyridine], for which the IC50 with HCT116 cells and at Aurora-A (setting [1]) was under 0.5 µM throughout.
On to `COc1ccc(-c2nc3c(N4CCN(Cc5c(C)noc5C)CC4)c(Br)cnc3[nH]2)cc1` [Example 127, 4-((4-(6-Bromo-2-(4-methoxyphenyl)-3H-imidazo[4,5-b]pyridin-7-yl)piperazin-1-yl)methyl)-3,5-dimethylisoxazole], for which the results for the IC50 in the test on HCT116 cells and on Aurora-A (setting [1]) were 0.5 to 2 µM and under 0.5 µM, respectively.
The corresponding values for `COc1ccc(-c2nc3c(N4CCN(Cc5cncnc5)CC4)c(Br)cnc3[nH]2)cc1` [Example 121, 6-Bromo-2-(4-methoxyphenyl)-7-(4-(pyrimidin-5-ylmethyl)piperazin-1-yl)-3H-imidazo[4,5-b]pyridine] are under 0.5 µM and under 0.5 µM.
Taken in the same sequence, the figures for `Brc1cnc2[nH]c(-c3ccc(N4CCOCC4)cc3)nc2c1N1CCN(Cc2cncnc2)CC1` [Example 123, 4-(4-(6-Bromo-7-(4-(pyrimidin-5-ylmethyl)piperazin-1-yl)-3H-imidazo[4,5-b]pyridin-2-yl)phenyl)morpholine] were 0.5 to 2 µM and under 0.5 µM.
As for `CC(C)CN1CCN(c2c(Br)cnc3[nH]c(-c4ccc(N(C)C)cc4)nc23)CC1` [Example 32, 4-(6-Bromo-7-(4-isobutylpiperazin-1-yl)-3H-imidazo[4,5-b]pyridin-2-yl)-N,N-dimethylaniline], the IC50 is 0.5 to 2 µM in the test with HCT116 cells and under 0.5 µM at Aurora-A.
